# Where two headings read alike, the source gives them in different places. Bridges are numbered along the chain shown (N, C = ends). Primed or numbered codes have the meaning given here. Where no end group is shown, it is not given here. The star is where a group is joined. Biotin = O=C1N[C@H]2[C@H](CS[C@H]2CCCCC(=O)*)N1; Fmoc = O=C(OCC1c2ccccc2-c2ccccc21)*; PEG4′ = not defined here
# How the values were obtained:
# IgG = test: Affinity analysis of IgG-binding peptides by surface plasmon resonance (BIAcore T200), IgG immobilized on sensor chip; conditions: for ka / kd: peptide 10 nM to 2 μM, HBS-EP buffer pH 7.0
# Protocol: Affinity analysis of the purified IgG-binding peptide was carried out according to the following method. Equal amounts of 0.4 M 1-ethyl-3-(3-dimethylaminopropyl)-carbodiimide (EDC) and 0.1 M sulfo-N-hydroxysuccinimide (sulfo-NHS) were mixed and injected onto a CMS sensor chip, which was set in BIAcoreT200 (GE healthcare), at a flow rate of […] for 7 min to activate the sensor chip, and then the IgG was immobilized on the sensor chip under conditions of pH 4.0 (10 mM Na acetate) so as to give an immobilized amount of 4000 to 5000 in RU value. The binding reaction was monitored by injecting the peptide in a concentration from 10 nM to 2 μM at a flow rate of […] for 180 sec while using an HBS-EP buffer (0.01 M HEPES, 0.15 M NaCl, 0.005% TWEEN 20, 3 mM EDTA, pH 7.0), and then the dissociation reaction was measured by washing with the buffer for 600 sec. Binding parameters were analyzed using BlAevalution T100 software.
# [1] = test system: human-derived serum γ-globulin; test: Competitive elution with peptide from peptide-immobilized column, SDS-PAGE; conditions: 2.5 mL of 0.4 mg/mL peptide solution; bands around 25 kDa and 50 kDa on SDS-PAGE
# Protocol: FIG. 2 illustrates results of SDS-PAGE of fractions fractionated in 0.5 mL that are obtained by eluting proteins with citric acid or the IgG-binding peptide from the column with immobilized peptide prepared in Example 3. The proteins were detected by CBB staining.
# To the column prepared by the same method as in Example 3, 1 mg of human-derived serum γ-globulin was fed to adsorb the globulin thereto. The column was washed with the adsorption solution, and then 2.5 mL of a 0.4 mg/mL solution of Peptide a prepared in Example 2 dissolved in the adsorption solution was fed to the column. Each fraction fractionated in 0.5 mL was subjected to SDS-PAGE under reductive conditions in accordance with an ordinary method. Proteins were detected by CBB staining. For comparison, similar operations were carried out also for citric acid elution.
# [2] = test system: human serum-derived γ-globulin; test: Separation of human serum-derived γ-globulin on peptide-immobilized column, acidic elution; conditions: 1 mg peptide on NHS-activated 1-mL column; elution 20 mM citric acid pH 2.5
# Protocol: FIG. 1 illustrates a result of a case where human serum-derived γ-globulin (Wako) was adsorbed to a column with immobilized peptide prepared in Example 3 and eluted with an acidic elution solution (20 mM citric acid, pH 2.5). The horizontal axis represents the volume of the elution liquid and the vertical axis represents the […] concentration measured by absorbance at 280 nm.
# A dichloroacetone-cross-linked peptide was immobilized to an NHS-activated prepacked column (GE Healthcare) to carry out various evaluations to assess whether the dichloroacetone-cross-linked peptide can be used as an affinity ligand for human antibody purification.
# The peptide-immobilized column was prepared by the following procedures. A syringe was used to feed a solution.
# To a 1-mL capacity NHS-activated prepacked column, 5 mL of 1 mM hydrochloric acid was fed to remove an isopropanol solution in the column. […]
# The prepared peptide-immobilized column was connected to a liquid chromatography system AKTAexplore (GE Healthcare) and equilibrated with the adsorption solution. […] The elution of proteins from the column was detected by absorbance at 280 nm. […]
# [3] = test system: human serum-derived γ-globulin; test: Evaluation of alkali resistance: DBC after repeated 0.1 M sodium hydroxide treatment; type: physicochemical; conditions: five 0.1 M sodium hydroxide treatments
# Protocol: FIG. 4 illustrates measurement results of DBC of an IgG-binding peptide cross-linked via a linker, prepared in Example 2, and an IgG-binding peptide cross-linked by disulfide, prepared in Comparative Example 1, both of which were treated with sodium hydroxide.
# To a 1-mg peptide-immobilized 1-mL column prepared by the same method as in Example 3, 5 mL of 0.1 M sodium hydroxide solution was fed. The column was then washed with the adsorption solution and DBC was measured at a flow rate of 1 mL/min as in Example 5. Subsequently, a cycle of the treatment with the sodium hydroxide solution and the DBC measurement was repeated five times to evaluate the alkali resistance. The variation rate of DBC was determined based on the DBC before the sodium hydroxide treatment as 100%.
# As Comparative Example 1, a column with 1 mg of a peptide cross-linked by a disulfide bond immobilized thereon was prepared, and the alkali resistance evaluation was carried out as in Example 5.
# [4] = SPR, 1:1 binding model, read-out: KD (nM) 1:1 binding
# [5] = SPR, equilibrium value, read-out: KD (nM) Equilibrium value
Substance,Kd (IgG; [4]) [nM],Kd (IgG; [5]) [nM],ka (IgG; SPR),kd (IgG; SPR),"Kd (IgG; measured as in Example 1, read-out: Kd (affinity for IgG)) [nM]",elution of adsorbed γ-globulin by peptide solution [1],usability as ligand for an affinity column (adsorption and acid elution of γ-globulin) [2],alkali resistance (change in DBC by sodium hydroxide treatments) [3]
"DCAYH(Xaa1)GELVWCT (SEQ ID NO:1, wherein Xaa1 was arginine and the C-terminus was amidated) ({Biotin-PEG4′}-DCAYHRGELVWCT-NH2; disulfide 2-12 (inferred)) [SEQ ID NO: 1, wherein Xaa1 is R]",54,64.5,4.57E+05,0.0248,,,,
"Fmoc-HN-PEG4-GPDCAYH(Xaa1)GELVWCTFH (SEQ ID NO:2, wherein Xaa1 was arginine and the C-terminus was amidated) ({Fmoc-PEG4′}-GPDCAYHRGELVWCTFH-NH2; cysteine pairing not given here) [Peptide b]",,,,,1000,,,
"GPDCAYH(Xaa1)GELVWCTFH (SEQ ID NO:2, wherein Xaa1 was acetylated lysine, and the C-terminus was amidated) (GPDCAYHXGELVWCTFH; Xaa1=acetyl-lysine; C-terminal amide; (8)..(8) Xaa is arginine, lysine, leucine, asparagine, or derivative thereof) [SEQ ID NO: 2, wherein Xaa1 is K (Acetyl)]",2700,2800,4.4E+05,0.12,,,,
"GPDCAYH(Xaa1)GELVWCTFH (SEQ ID NO:2, wherein Xaa1 was arginine and the C-terminus was amidated) (GPDCAYHRGELVWCTFH-NH2; not fully specified (N-terminus, bridges); printed as GPDCAYH(Xaa1)GELVWCTFH; cysteine pairing not given here) [SEQ ID NO: 2, wherein Xaa1 is R]",9.1,10,1.57E+06,0.0144,,,,
"GPDCAYH(Xaa1)GELVWCTFH (SEQ ID NO:2, wherein Xaa1 was arginine and the C-terminus was amidated) ({Biotin-PEG4′}-GPDCAYHRGELVWCTFH-NH2; bridge 4-14; not fully specified (bridges); printed as GPDCAYH(Xaa1)GELVWCTFH) [Peptide a, N-terminally PEG4-modified, C-terminally amidated; cysteine sulfide groups connected via linker from 1,3-dichloro-2-propanone (linker drawing 11)]",,,,,,can be used as a means for elution,can be used as a ligand for an affinity column,no decrease in DBC
"GPDCAYH(Xaa1)GELVWCTFH (SEQ ID NO:2, wherein Xaa1 was leucine, and the C-terminus was amidated) ({Biotin-PEG4′}-GPDCAYHLGELVWCTFH-NH2; disulfide 4-14 (inferred)) [SEQ ID NO: 2, wherein Xaa1 is L]",8.1,,1.7E+05,0.014,,,,
"GPDCAYH(Xaa1)GELVWCTFH (SEQ ID NO:2, wherein Xaa1 was lysine, and the C-terminus was amidated) (GPDCAYHXGELVWCTFH; Xaa1=K; C-terminal amide; (8)..(8) Xaa is arginine, lysine, leucine, asparagine, or derivative thereof) [SEQ ID NO: 2, wherein Xaa1 is K]",156,131,1.25E+06,0.195,,,,
"GPRCAYH(Xaa1)GELVWCSFH (SEQ ID NO:4, wherein Xaa1 was arginine and the C-terminus was amidated) (GPRCAYHRGELVWCSFH-NH2; not fully specified (N-terminus, bridges); cysteine pairing not given here) [SEQ ID NO: 4, wherein Xaa1 is R]",42,56,8.40E+05,0.0353,,,,

# Source: patent US11186613B2, “Solid-phase support comprising IgG-binding peptide, and method for separating IgG” (Kagoshima University, priority 2016, dated 2021)
